Assay results reported in US8785471B2, “Pharmaceutical composition containing ferulic acid and matrine compounds, the preparation and the use thereof” (Qingdao Qiyuan Bio-Technologies Co., Ltd., priority 2008, dated 2014).
Marks after values point to notes of the source that are not given here.

Key:
[1] = system: rats; assay: Alzheimer's disease model rats, learning and memorizing ability in jumping tests; format: in vivo; conditions: intragastric 50 μg/kg, 7 days, mean ± SD
Description: (§1) Animal grouping, modeling and administration: 57 female Wistar rats (15 month old, 300-450 g, from animal center of Qingdao Institute for Drug Control, fed under normal conditions and natural light with unlimited drink and food) were randomly separated into 6 groups. Rats in normal control group were intraperitoneal injected with physiological saline for 6 weeks and injected physiological saline into the meynert nucleus basalis. Rats in modeling control group were injected intraperitoneally with D-galactose (48 mg/kg/d) for 6 weeks and injected with ibotenic acid into the meynert nucleus basalis. […] The rats in the normal and modeling control groups were intragastrically administrated with physiological saline for consecutive 7 days. 1 hour after the last administration, the learning ability of all the rats; was evaluated. Then, the rats were anesthetized with Pentobarbital. 5 ml blood was collected from abdominal aorta. Immediately the cortex tissue was collected and homogenated with physiological saline into 10% (WN). The AChE activity in cortex tissue and blood was measured according to the reagent kit instructions. • 3. Measurement: testing the memory ability of rats: the rats were placed in an electric box with an escaping platform for 3 minutes to get used to the new environments. The box was then connected to 50V AC. Upon being shocked, the rats can escape the electricity by jumping onto the platform. The shocked times (mistakes) within 5 minutes were recorded as a reference for the learning ability of the rats. After 24 hours, the rats were placed directly on the platform. The latency time for the first jump was recorded as a reference for the memory ability. The shocked times (mistakes) within 5 minutes were also recorded. The latency time of over 5 minutes was considered as 5 minutes.
T testing method was used to evaluate the difference within different groups, and the difference was statistically significant when P<0.05. • 4. […] P represents statistic difference. *P<0.05 means statistically obvious difference, **P<0.01 statistically significant difference.

[2] = system: AChE activity in cortex tissue and blood; conditions: model rats, intragastric 50 μg/kg, 7 days; mean ± SD
Description: as §1, with “Measurement: testing the memory ability of rats: the rats were placed in an electric box with an escaping platform for 3 minutes to get used to the new environments. The box was then connected to 50V AC. Upon being shocked, the rats can escape the electricity by jumping onto the platform.” left out, “After 24 hours, the rats were placed directly on the platform.” left out, “The latency time of over 5 minutes was considered as 5 minutes.” left out

## C/C=C1\[C@H]2C=C(C)C[C@]1(N)c1ccc(=O)[nH]c1C2 [Huperzine A, huperzine A]
[1]; after 24 hours
  Latency: 135 ± 55* s
[1]
  Mistakes within 5 min: 4 ± 2.3*
  Mistakes within 5 min after 24 hours: 2 ± 1.6*
[2]
  Blood TchE: 48 ± 35* mmol/L
  Cortex TchE: 2.0 ± 0.6* μmol/g
